Marks after values point to notes of the source that are not given here.
How the values were obtained:
Type in all cases: cell-based
[1] = system: S. gordonii; test: Multi-species biofilm composition: absolute abundance of S. gordonii; conditions: mean±SD n=3
Experimental: (§1) Biofilms are grown vertically on Calcium Deficient Hydroxyapatite (CAD-HA) disks (Hitemco Medical, Old Bethpage, USA) using the Amsterdam Active Adhesion model. Biofilms are allowed to establish during 24 h (37° C., 170 rpm) under micro-aerophilic conditions (6% O2, 7% CO2, 7% H2, 80% N2). After this 24 h, disks are rinsed 3 times a day for 3 minutes (RT, 250 rpm), for 3 consecutive days, by transferring the lid containing the disks to a new 24-well plate containing 2 mL/well of the appropriate substrate solution. As a negative control, PBS (pH 5.7) without substrate supplementation is used. After each rinsing step, disks are shortly dip-rinsed in a new 24-well plate containing fresh modified BHI medium (2 mL/well) to remove remaining substrate traces. Subsequently, the lid is transferred to another 24-well plate containing fresh modified BHI medium (2 mL/well), followed by incubation (micro-aerophilic, 37° C., 170 rpm) until the next rinsing step.
(§2) NADM, N-acetyl-D-glucosamine (“NADG”) and D-(+)-mannose are selected to determine their effects on multi-species biofilm composition. Repeated rinsing of the biofilms with the substrates at a concentration of 1M results in a significant decrease in absolute numbers in at least four of the pathogenic bacterial species tested in the assay, compared to the control, the results of which are described in Table 1 below. Absolute abundances of bacterial species are shown as mean±SD (n=3) logarithmic values of the genome equivalents per millilitre (log(Geq/mL)).

[2] = system: F. nucleatum virulence genes; test: Multi-species biofilm virulence gene expression, SYBR RT-qPCR: F. nucleatum; conditions: for Fold Change in virulence gene expression: ABC transp. perm. / Fold Change in virulence gene expression: EF-G / Fold Change in virulence gene expression: but.-coA transf. / Fold Change in virulence gene expression: hemin receptor / Fold Change in virulence gene expression: hemolysin / Fold Change in virulence gene expression: ompA / Fold Change in virulence gene expression: transposase: relative to control (=1), 2^-ΔΔCt, geometric mean n=3
Experimental: as §1
(§3) The expression of 33 virulence genes from 4 periodontal pathogens is analysed to evaluate the relative virulence of the substrate-treated biofilms. For all three substrates, virulence gene expression is determined relatively to the control, and these values are also compared between substrates when this is relevant (Tables 5a-5d).

[3] = system: V. parvula; test: Multi-species biofilm composition: absolute abundance of V. parvula; conditions: mean±SD n=3
Experimental: as §1, §2

[4] = system: S. oralis; test: Multi-species biofilm composition: absolute abundance of S. oralis; conditions: mean±SD n=3
Experimental: as §1
(§4) NADM, N-acetyl-D-glucosamine (“NADG”) and D-(+)-mannose are selected to determine their effects on multi-species biofilm composition. […] decrease in absolute numbers in at least four of the pathogenic bacterial species tested in the assay, compared to the control, the results of which are described in Table 1 below. Absolute abundances of bacterial species are shown as mean±SD (n=3) logarithmic values of the genome equivalents per millilitre (log(Geq/mL)).

[5] = system: S. mitis; test: Multi-species biofilm composition: absolute abundance of S. mitis; conditions: mean±SD n=3
Experimental: as §1, §4

[6] = system: human oral keratinocytes (HOK-18A); test: IL-8 levels in supernatants of keratinocyte cultures exposed to substrate-treated biofilms; conditions: mean±SD n=3
Experimental: Cultures of immortalized human oral keratinocytes (HOK-18A) are grown. The relative inflammatory potential of the substrate-treated multi-species biofilms is evaluated by analyzing the expression of five inflammatory mediator genes in human oral keratinocytes (HOKs) exposed to the substrate-treated biofilms. […] The IL-8 levels in the cellular supernatant are determined as well. RNA is converted to cDNA and relative expression of inflammatory mediator genes is determined as described above with respect to the cellular housekeeping gene (3-actin.
Table 7: IL-8 levels detected in the supernatants of human oral keratinocytes (HOK-18A) cultures exposed to substrate-treated multi-species biofilms are shown as mean±SD (n=3) values (pg/mL). All substrates are dissolved in PBS at a concentration of 1 M (upper part) or 1% (w/v) (lower part). Values between 0 and 1 represent relative downregulation, values >1 represent relative upregulation. […] For such values, statistically significant differences between two experimental conditions are marked with ‘#1’ (vs. NADM), ‘#2’ (vs. NADG), ‘#3’ (vs. D-(+)-mannose) (P<0.05).

[7] = system: P. gingivalis; test: Multi-species biofilm composition: absolute abundance of P. gingivalis; conditions: for Absolute abundance Pg (P. gingivalis): mean±SD n=3
Experimental: as §1, §4

[8] = system: P. gingivalis virulence genes; test: Multi-species biofilm virulence gene expression, SYBR RT-qPCR: P. gingivalis; conditions: relative to control, 2^-ΔΔCt, geometric mean n=3
Experimental: as §1, §3

[9] = system: P. intermedia; test: Multi-species biofilm composition: absolute abundance of P. intermedia; conditions: mean±SD n=3
Experimental: as §1, §2

[10] = system: P. intermedia virulence genes; test: Multi-species biofilm virulence gene expression, SYBR RT-qPCR: P. intermedia; conditions: for Fold Change in virulence gene expression: DnaJ / Fold Change in virulence gene expression: DnaK / Fold Change in virulence gene expression: ECF / Fold Change in virulence gene expression: GroES / Fold Change in virulence gene expression: HtpG / Fold Change in virulence gene expression: KpsD / Fold Change in virulence gene expression: adpc / Fold Change in virulence gene expression: clpB / Fold Change in virulence gene expression: inpA / Fold Change in virulence gene expression: phg: relative to control (=1), 2^-ΔΔCt, geometric mean n=3
Experimental: as §1, §3

[11] = system: S. sobrinus; test: Multi-species biofilm composition: absolute abundance of S. sobrinus; conditions: mean±SD n=3
Experimental: as §1, §4

[12] = system: F. nucleatum; test: Multi-species biofilm composition: absolute abundance of F. nucleatum; conditions: for Absolute abundance Fn (F. nucleatum): mean±SD n=3
Experimental: as §1, §4

[13] = system: S. salivarius; test: Multi-species biofilm composition: absolute abundance of S. salivarius; conditions: mean±SD n=3
Experimental: as §1, §2

Structure (SMILES): O=C[C@@H](O)[C@@H](O)[C@H](O)[C@H](O)CO [D-mannose, D-(+)-mannose]
- Absolute abundance S. gord. (S. gordonii) ([1]; substrate 1%(w/v) in PBS): 8.29 ± 0.11 log(Geq/mL)
- Absolute abundance S. gord. (S. gordonii) ([1]; substrate 1 M in PBS): 9.19 ± 0.39 log(Geq/mL)
- Fold Change in virulence gene expression: ABC transp. perm. ([2]; substrate 1%): 0.73 fold
- Fold Change in virulence gene expression: EF-G ([2]; substrate 1%): 0.13 fold
- Fold Change in virulence gene expression: but.-coA transf. ([2]; substrate 1%): 0.37 fold
- Fold Change in virulence gene expression: hemin receptor ([2]; substrate 1%): 0.26 fold
- Fold Change in virulence gene expression: hemolysin ([2]; substrate 1%): 0.89 fold
- Fold Change in virulence gene expression: ompA ([2]; substrate 1%): 1.17 fold
- Fold Change in virulence gene expression: transposase ([2]; substrate 1%): 1.38 fold
- F. nucleatum butyrate acetoacetate CoA transferase gene, upregulation ([2]; substrate 1 M): 2.3 fold
- F. nucleatum hemolysin gene, upregulation ([2]; substrate 1 M): 2.1 fold
- Fold Change in virulence gene expression: ABC transp. perm. ([2]; substrate 1M): 2.65 fold
- Fold Change in virulence gene expression: EF-G ([2]; substrate 1M): 1.36 fold
- Fold Change in virulence gene expression: but.-coA transf. ([2]; substrate 1M): 2.27 fold
- Fold Change in virulence gene expression: hemin receptor ([2]; substrate 1M): 3.82 fold
- Fold Change in virulence gene expression: hemolysin ([2]; substrate 1M): 2.14 fold
- Fold Change in virulence gene expression: ompA ([2]; substrate 1M): 1.36 fold
- Fold Change in virulence gene expression: transposase ([2]; substrate 1M): 1.46 fold
- Absolute abundance Vp (V. parvula) ([3]; substrate 1%(w/v) in PBS): 9.93 ± 0.20 log(Geq/mL)
- Absolute abundance Vp (V. parvula) ([3]; substrate 1 M in PBS): 10.18 ± 0.09 log(Geq/mL)
- Absolute abundance S. oralis ([4]; substrate 1%(w/v) in PBS): 6.27 ± 0.21 log(Geq/mL)
- Absolute abundance S. oralis ([4]; substrate 1 M in PBS): 6.83 ± 0.09 log(Geq/mL)
- Absolute abundance S. mitis ([5]; substrate 1%(w/v) in PBS): 3.00 ± 0.49 log(Geq/mL)
- Absolute abundance S. mitis ([5]; substrate 1 M in PBS): <LOD
- IL-8 levels in supernatants of HOK-18A cultures ([6]; biofilm rinsed with substrate 1%(w/v)): 51.09 ± 13.89 pg/mL
- IL-8 levels in supernatants of HOK-18A cultures ([6]; biofilm rinsed with substrate 1M): 0.06 ± 0.04 pg/mL
- Absolute abundance Pg (P. gingivalis) ([7]; substrate 1%(w/v) in PBS): 7.08 ± 0.17 log(Geq/mL)
- Difference in P. gingivalis amounts compared to NADG ([7]; substrate 1 M): −1.25 log(Geq/mL)
- Absolute abundance Pg (P. gingivalis) ([7]; substrate 1 M in PBS): 2.75 ± 0.08*^, #2 log(Geq/mL)
- Fold Change in virulence gene expression: fimA ([8]; substrate 1%): 2.50 fold
- Fold Change in virulence gene expression: kgp ([8]; substrate 1%): 3.07 fold
- Fold Change in virulence gene expression: partC ([8]; substrate 1%): 0.60 fold
- Fold Change in virulence gene expression: rgpA ([8]; substrate 1%): 1.85 fold
- Fold Change in virulence gene expression: fimA ([8]; substrate 1M): 1.17 fold
- Fold Change in virulence gene expression: kgp ([8]; substrate 1M): 0.44 fold
- Fold Change in virulence gene expression: partC ([8]; substrate 1M): 0.09 fold
- Fold Change in virulence gene expression: rgpA ([8]; substrate 1M): 0.18 fold
- Absolute abundance Pi (P. intermedia) ([9]; substrate 1%(w/v) in PBS): 8.06 ± 0.19 log(Geq/mL)
- Absolute abundance Pi (P. intermedia) ([9]; substrate 1 M in PBS): 7.80 ± 0.57 log(Geq/mL)
- Relative P. intermedia virulence gene expression, downregulation ([10]; substrate 1%(w/v), D-(+)-mannose for 3 genes): 2- to 2.7 fold
- Fold Change in virulence gene expression: DnaJ ([10]; substrate 1%): 0.37 fold
- Fold Change in virulence gene expression: DnaK ([10]; substrate 1%): 0.63 fold
- Fold Change in virulence gene expression: ECF ([10]; substrate 1%): 0.6 fold
- Fold Change in virulence gene expression: GroES ([10]; substrate 1%): 0.51 fold
- Fold Change in virulence gene expression: HtpG ([10]; substrate 1%): 0.46 fold
- Fold Change in virulence gene expression: KpsD ([10]; substrate 1%): 0.96 fold
- Fold Change in virulence gene expression: adpc ([10]; substrate 1%): 0.54 fold
- Fold Change in virulence gene expression: clpB ([10]; substrate 1%): 1.00 fold
- Fold Change in virulence gene expression: inpA ([10]; substrate 1%): 0.37 fold
- Fold Change in virulence gene expression: phg ([10]; substrate 1%): 0.50 fold
- Fold Change in virulence gene expression: DnaJ ([10]; substrate 1M): 0.03 fold
- Fold Change in virulence gene expression: DnaK ([10]; substrate 1M): 0.44 fold
- Fold Change in virulence gene expression: ECF ([10]; substrate 1M): 1.47 fold
- Fold Change in virulence gene expression: GroES ([10]; substrate 1M): 0.37 fold
- Fold Change in virulence gene expression: HtpG ([10]; substrate 1M): 0.29 fold
- Fold Change in virulence gene expression: KpsD ([10]; substrate 1M): 0.42 fold
- Fold Change in virulence gene expression: adpc ([10]; substrate 1M): 0.27 fold
- Fold Change in virulence gene expression: clpB ([10]; substrate 1M): 0.14 fold
- Fold Change in virulence gene expression: inpA ([10]; substrate 1M): 0.47 fold
- Fold Change in virulence gene expression: phg ([10]; substrate 1M): 0.10 fold
- Absolute abundance S. sobrinus ([11]; substrate 1%(w/v) in PBS): 5.28 ± 0.44 log(Geq/mL)
- Absolute abundance S. sobrinus ([11]; substrate 1 M in PBS): 5.44 ± 0.31 log(Geq/mL)
- Decrease in F. nucleatum vs control ([12]; substrate 1%(w/v)): 1.1 log(Geq/mL)
- Absolute abundance Fn (F. nucleatum) ([12]; substrate 1%(w/v) in PBS): 8.66 ± 0.29 log(Geq/mL)
- Absolute abundance Fn (F. nucleatum) ([12]; substrate 1 M in PBS): 6.59 ± 0.36 log(Geq/mL)
- Absolute abundance S. sal. (S. salivarius) ([13]; substrate 1%(w/v) in PBS): 2.89 ± 0.35 log(Geq/mL)
- Absolute abundance S. sal. (S. salivarius) ([13]; substrate 1 M in PBS): 3.63 ± 0.90 log(Geq/mL)
